Test results taken from the supplement of paper PMC10702517.
± gives the standard deviation.

Assays:
[1] = chemical recovery from spiked human plasma; higher = better extraction; conditions: pooled human plasma
[2] = chemical recovery by SPE of plasma after PDMS sampling; higher = better extraction; conditions: pooled human plasma, extraction method: HLB SPE of plasma after PES
[3] = chemical recovery into PDMS from spiked human plasma; higher = better extraction; conditions: pooled human plasma, extraction method: PES with PDMS
[4] = extraction method: SPE only (HLB 96-well)
[5] = extraction method: SPE only (HLB 96-well), PES comparison experiment
[6] = extraction method: solvent precipitation (ACN + hexane)
[7] = extraction method: PES+SPE (3 d PDMS equilibration then HLB SPE)
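Wherever chemical recovery by SPE of plasma after PDMS sampling is given: over 400 spiked chemicals quantified by LC-HRMS or GC-HRMS via internal standard calibration, recovery relative to spike mix added to unspiked plasma extract to correct matrix effects.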

Row | SMILES | chemical recovery [1, 4] | chemical recovery [1, 5] | chemical recovery [1, 6] | chemical recovery by SPE of plasma ([2]; equilibration time (d): 1) | chemical recovery by SPE of plasma ([2]; equilibration time (d): 3) | chemical recovery by SPE of plasma ([2]; equilibration time (d): 6) | chemical recovery into PDMS ([3]; equilibration time (d): 1) | chemical recovery [1, 7] | chemical recovery into PDMS ([3]; equilibration time (d): 3) | chemical recovery into PDMS ([3]; equilibration time (d): 6)
1 | Clc1ccc(-c2cc(Cl)c(Cl)cc2Cl)cc1Cl [PCB118] | 0.333 ± 0.1% | 3.8 ± 7.6% | 32 ± 1.2% | 2.43 ± 1.6% | 1.87 ± 0.24% | 1.71 ± 0.54% | 74.9 ± 4.3% | – | – | –
2 | Clc1cc(Cl)c(-c2ccc(Cl)c(Cl)c2Cl)cc1Cl [PCB138] | 2.27 ± 0.8% | 11.2 ± 2.8% | 81.6 ± 6.5% | 4.29 ± 2.9% | 1.78 ± 0.29% | 1.33 ± 0.48% | 67.4 ± 9.5% | 61.3 ± 12% | 91.8 ± 1.4% | 89.4 ± 5.2%
3 | Clc1cc(Cl)c(-c2c(Cl)ccc(Cl)c2Cl)cc1Cl [PCB149] | 4.51 ± 1.5% | 10.4 ± 2% | 91 ± 6.8% | 3.35 ± 2.2% | 1.54 ± 0.15% | 1.29 ± 0.33% | – | 56.86 ± 0.52% | 103 ± 14% | 100 ± 8.1%
4 | Clc1cc(Cl)c(-c2cc(Cl)c(Cl)cc2Cl)cc1Cl [PCB153] | 1.64 ± 0.63% | 10.3 ± 2.5% | 77.6 ± 3.5% | 4.72 ± 3% | 2.08 ± 0.28% | 1.44 ± 0.58% | 55.1 ± 6.8% | 62.9 ± 9% | 86.4 ± 3.6% | 82.2 ± 2.6%
5 | Clc1cc(Cl)c(-c2cc(Cl)c(Cl)c(Cl)c2Cl)cc1Cl [PCB180] | 1.45 ± 0.68% | – | – | 4.51 ± 2.9% | 3.71 ± 1% | 1.43 ± 0.49% | – | 40.2 ± 2.1% | 67.8 ± 8% | 73.3 ± 5.7%
6 | Clc1cc(-c2cc(Cl)c(Cl)c(Cl)c2Cl)c(Cl)c(Cl)c1Cl [PCB194] | 0.915 ± 0.53% | – | 2.72 ± 0.18% | 3.6 ± 2.3% | 5.05 ± 1.1% | 2.4 ± 0.65% | – | 38.3 ± 2.4% | 54.4 ± 6.3% | 63.4 ± 5.4%
7 | Fc1ccc([C@@H]2CCNC[C@H]2COc2ccc3c(c2)OCO3)cc1 [Paroxetine] | 63.1 ± 3.8% | 42.8 ± 9.2% | 61.7 ± 1.7% | 2.65 ± 0.22% | 3.11 ± 0.29% | 2.27 ± 0.16% | 0.404 ± 0.21% | 3.9 ± 1.1% | 0.313 ± 0.1% | 0.637 ± 0.5%
8 | CCC(CC)Nc1c([N+](=O)[O-])cc(C)c(C)c1[N+](=O)[O-] [Pendimethalin] | 39 ± 11% | 32.3 ± 7.6% | 87.6 ± 9.3% | – | 0.1 ± 0.17% | – | 45.8 ± 3% | – | 46.4 ± 4.9% | 47.5 ± 6.3%
9 | CC(=O)CCCCn1c(=O)c2c(ncn2C)n(C)c1=O [Pentoxifylline] | 46.9 ± 3.7% | 52.1 ± 4.9% | 76.5 ± 3.2% | 37.9 ± 5.9% | 33.6 ± 3.5% | 25.1 ± 4.3% | 17.2 ± 0.99% | 57.2 ± 6.1% | 24.5 ± 3.9% | 27 ± 2.1%
10 | c1cc2cccc3c4cccc5cccc(c(c1)c23)c54 [Perylene] | 1.66 ± 0.56% | – | 64.2 ± 5.1% | 0.65 ± 0.62% | 1.03 ± 0.53% | 1.2 ± 0.41% | 73.8 ± 6.2% | – | 71.9 ± 9.9% | 79.5 ± 6%
11 | CCOCCN(C(=O)CCl)C(=C(C)C)c1ccccc1 [Pethoxamid] | – | 49.5 ± 6.9% | 56.3 ± 2.8% | – | 0.187 ± 0.32% | – | 41 ± 2.5% | – | 43.5 ± 3.3% | 43.2 ± 1.5%
12 | O=S(=O)(O)c1ccc2[nH]c(-c3ccccc3)nc2c1 [Phenylbenzimidazole sulfonic acid] | 36.9 ± 3.3% | 52 ± 5.8% | 27.9 ± 3.1% | 42.2 ± 5.2% | 49 ± 1.8% | 45.8 ± 8.4% | 0.124 ± 0.24% | 43.2 ± 2.9% | – | –
13 | CO/C=C(/C(=O)OC)c1ccccc1COc1cccc(C(F)(F)F)n1 [Picoxystrobin] | 38.3 ± 2.8% | 47.8 ± 7.1% | 63.7 ± 4.3% | 1.61 ± 0.23% | 2.06 ± 0.34% | 0.862 ± 0.75% | 47 ± 3.2% | – | 48.5 ± 5.8% | 48.7 ± 2.7%
14 | O=C(/C=C/C=C/c1ccc2c(c1)OCO2)N1CCCCC1 [Piperine] | 40.7 ± 2.7% | 56.1 ± 7.1% | 83.6 ± 4% | 1.77 ± 0.44% | 1.85 ± 0.37% | 0.965 ± 0.074% | 34.8 ± 3.2% | – | 39.3 ± 4.2% | 36.6 ± 1.7%
15 | CCCCOCCOCCOCc1cc2c(cc1CCC)OCO2 [Piperonyl butoxide] | – | 39.5 ± 6.4% | – | 0.249 ± 0.12% | 0.337 ± 0.29% | 0.24 ± 0.013% | 46.4 ± 3.2% | – | 48.7 ± 3.9% | 46 ± 2.6%
16 | Cc1nc(N(C)C)nc(OC(=O)N(C)C)c1C [Pirimicarb] | 34.3 ± 1.5% | 41.4 ± 5.3% | 64.5 ± 2.5% | 6.05 ± 0.55% | 6.09 ± 1% | 4.09 ± 0.28% | 29.3 ± 1.2% | 55.6 ± 8% | 33.3 ± 1.8% | 34 ± 1.7%
17 | CCN(CC)c1nc(C)cc(OP(=S)(OC)OC)n1 [Pirimiphos-methyl] | 36.4 ± 3.4% | 42.9 ± 8.2% | 68.8 ± 5.2% | 0.602 ± 0.13% | 0.453 ± 0.41% | 0.275 ± 0.24% | 29.7 ± 4.3% | – | 33.5 ± 3.9% | 32.1 ± 0.42%
18 | C[C@]12C=CC(=O)C=C1CC[C@@H]1[C@@H]2C(=O)C[C@@]2(C)[C@H]1CC[C@]2(O)C(=O)CO [Prednisone] | – | 45.5 ± 5.8% | – | 41.6 ± 4.3% | 43.7 ± 5.1% | 41.1 ± 2.4% | – | – | 0.176 ± 0.18% | 0.265 ± 0.091%
19 | CCCNCCOc1c(Cl)cc(Cl)cc1Cl [Prochloraz BTS403-48] | 47.1 ± 2% | 46.2 ± 5.1% | 71.2 ± 3% | 0.247 ± 0.057% | 0.287 ± 0.11% | 0.165 ± 0.0069% | 0.602 ± 0.13% | 1.17 ± 0.37% | 0.604 ± 0.12% | 0.862 ± 0.22%
20 | CC(C)N(C(=O)CCl)c1ccccc1 [Propachlor] | 28.6 ± 2.1% | 41.4 ± 7.8% | 45.1 ± 10% | 1.58 ± 0.41% | 2.49 ± 0.44% | 1.58 ± 0.092% | 31.9 ± 1.8% | – | 34.7 ± 3.9% | 35.3 ± 2.5%
21 | CCCC1COC(Cn2cncn2)(c2ccc(Cl)cc2Cl)O1 (configuration not stated) [Propiconazole] | – | 43.1 ± 6.8% | 70.3 ± 3.4% | 0.277 ± 0.24% | 0.384 ± 0.17% | 0.117 ± 0.052% | 38.2 ± 2.5% | – | 41 ± 3.7% | 40.7 ± 1.6%
22 | CC(C)NCC(O)COc1cccc2ccccc12 (configuration not stated) [Propranolol] | 45.4 ± 2.9% | 50 ± 7% | 71.9 ± 3.2% | 8.66 ± 0.64% | 9.06 ± 1.1% | 7.31 ± 0.57% | 0.322 ± 0.19% | 7.98 ± 1.1% | 0.522 ± 0.36% | 0.438 ± 0.19%
23 | CCCOC(=O)c1ccc(O)cc1 [Propylparaben] | 43.1 ± 2.1% | 67.9 ± 7.4% | 70.6 ± 3.7% | 40.3 ± 8.2% | 43 ± 3.8% | 34 ± 0.68% | 11.6 ± 0.24% | 56.4 ± 4.7% | 13.2 ± 1.9% | 14.8 ± 2%
24 | Cc1c(C(C)C)c(=O)n(-c2ccccc2)n1C [Propyphenazone] | 44.6 ± 2.6% | 47.3 ± 6.5% | 69.31 ± 0.67% | 4.36 ± 0.18% | 3.89 ± 0.79% | 2.01 ± 0.19% | 17.3 ± 1.9% | 48.4 ± 9.9% | 22 ± 0.25% | 23 ± 2.1%
